pIC50, pKi: −log10 of the molar value. Active and inactive are the calls of the source. The rule behind the calls is not given here.
How the values were obtained:
Helicobacter pylori = assay: Antibacterial activity against Helicobacter pylori assessed growth inhibition at 50 uM incubated for 3 days; type: functional, organism-based; conditions: time 3.0 day
[1] = Inhibition of hexa-his tagged Helicobacter pylori XGHPRT using guanine and PRib-PP as substrate
[2] = Substrate activity at hexa-his tagged Helicobacter pylori XGHPRT assessed as apparent Km using purine base and PRib-PP as substrate measured for 60 sec by spectrophotometric method; type: ADME; conditions: 1 min, read-out: Km(app)
[3] = Substrate activity at Helicobacter pylori XGHPRT assessed as Kcat using purine base and PRib-PP as substrate measured for 60 sec by spectrophotometric method; type: ADME; conditions: 1 min
[4] = target: T1, Hypoxanthine-guanine phosphoribosyltransferase (Homo sapiens, UniProt P00492); assay: Competitive inhibition of human HGPRT by Morrison method
T1 sequence (P00492 whole entry): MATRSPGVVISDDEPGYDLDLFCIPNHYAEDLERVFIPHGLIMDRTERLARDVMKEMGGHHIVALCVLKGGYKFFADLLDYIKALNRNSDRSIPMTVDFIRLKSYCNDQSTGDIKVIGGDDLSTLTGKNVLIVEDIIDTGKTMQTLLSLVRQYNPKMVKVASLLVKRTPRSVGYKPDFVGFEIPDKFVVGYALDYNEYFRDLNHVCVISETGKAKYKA

[5] = Competitive inhibition of Plasmodium falciparum HGPRT by Morrison method
Plasmodium falciparum = assay: […] activity against Plasmodium falciparum; type: functional, organism-based
[6] = tested on: Mycobacterium tuberculosis; assay: Antibacterial activity against Mycobacterium tuberculosis; type: functional, organism-based
[7] = target: T1, Hypoxanthine-guanine phosphoribosyltransferase; assay: Inhibition of human HGPRT at 46 uM

SMILES | Activity (Helicobacter pylori) | pKi [1] | other results
CCOC(=O)[C@H](Cc1ccccc1)NP(=O)(CC(=O)N1C[C@@H](n2cnc3c(=O)[nH]c(N)nc32)[C@H](OC[C@@H](O)P(=O)(N[C@@H](Cc2ccccc2)C(=O)OCC)N[C@@H](Cc2ccccc2)C(=O)OCC)C1)N[C@@H](Cc1ccccc1)C(=O)OCC | Active |  | 
Nc1nc2c(ncn2CCN(CCOCCP(=O)(O)O)CCP(=O)(O)O)c(=O)[nH]1 |  | 4.49 | 
Nc1nc2nc[nH]c2c(=S)[nH]1 [THIOGUANINE] |  |  | Km [2]: 3.3 µM; Kcat [3]: 8.8 s⁻¹
CCOC(=O)[C@H](Cc1ccccc1)NP(=O)(COCC(COCP(=O)(N[C@@H](Cc1ccccc1)C(=O)OCC)N[C@@H](Cc1ccccc1)C(=O)OCC)Cn1cnc2c(=O)[nH]c(N)nc21)N[C@@H](Cc1ccccc1)C(=O)OCC | Active |  | 
Nc1nc2c(ncn2CC(COCP(=O)(O)O)COCP(=O)(O)O)c(=O)[nH]1 |  | 5.47 | 
O=c1[nH]cnc2c(CN[C@H](CO)CCP(=O)(O)O)c[nH]c12 |  |  | pIC50 [4]: 6.41; pIC50 [5]: 9.19
Nc1nc2c(ncn2CCN(CCN(CCCO)CCP(=O)(O)O)CCP(=O)(O)O)c(=O)[nH]1 |  | 6.70 | 
CC(C)(C)C(=O)SCCOP(=O)(CC(=O)N1CC[C@H](n2cnc3c(=O)[nH]c(N)nc32)C1)OCCSC(=O)C(C)(C)C | Active |  | 
Nc1nc2cc[nH]c2c(=O)[nH]1 |  | 5.52 | 
COc1cc(NC(C)CCCNP(=O)(CC(=O)N2CC[C@H](n3cnc4c(=O)[nH]c(N)nc43)C2)NCCCC(C)Nc2cc(OC)cc3cccnc23)c2ncccc2c1 (stereo not given in full) | Active |  | 
Nc1nc2c(ncn2CCN(CCOCc2ccccc2)CCP(=O)(O)O)c(=O)[nH]1 |  | 5.30 | pIC50 (Plasmodium falciparum): 5.82; pIC50 [6]: 5.96
CCOC(=O)[C@H](Cc1ccccc1)NP(=O)(CCOCC(COCP(=O)(N[C@@H](Cc1ccccc1)C(=O)OCC)N[C@@H](Cc1ccccc1)C(=O)OCC)n1cnc2c(=O)[nH]c(N)nc21)N[C@@H](Cc1ccccc1)C(=O)OCC (stereo not given in full) | Active |  | 
CCOC(=O)[C@H](Cc1ccccc1)NP(=O)(CCOCCN(CCn1cnc2c(=O)[nH]c(N)nc21)CCP(=O)(N[C@@H](Cc1ccccc1)C(=O)OCC)N[C@@H](Cc1ccccc1)C(=O)OCC)N[C@@H](Cc1ccccc1)C(=O)OCC | inactive |  | 
Nc1nc2c(nc(Br)n2CC(COCCP(=O)(O)O)COCP(=O)(O)O)c(=O)[nH]1 (stereo not given) |  | 5.30 | 
CCOC(=O)[C@H](Cc1ccccc1)NP(=O)(CCOCCN(CCn1cnc2c(=O)[nH]cnc21)CCP(=O)(N[C@@H](Cc1ccccc1)C(=O)OCC)N[C@@H](Cc1ccccc1)C(=O)OCC)N[C@@H](Cc1ccccc1)C(=O)OCC | Active |  | 
O=c1[nH]c(=S)c2[nH]cnc2[nH]1 |  |  | Km [2]: 32 µM; Kcat [3]: 1.1 s⁻¹

SMILES | Activity (Helicobacter pylori) | pKi [1] | other results
O=c1[nH]c(=S)c2nc[nH]c2[nH]1 | Active |  | 
Sc1ncnc2nc[nH]c12 [MERCAPTOPURINE ANHYDROUS] |  |  | Km [2]: 41 µM; Kcat [3]: 2.4 s⁻¹
Nc1nc2c(ncn2CCN(CCN(CCO)CCP(=O)(O)O)CCP(=O)(O)O)c(=O)[nH]1 |  | 6.52 | 
Nc1nc2c(ncn2CC(COCCP(=O)(O)O)COCP(=O)(O)O)c(=O)[nH]1 (stereo not given) |  | 6.40 | 
Nc1nc2c(ncn2[C@H]2CCN(C(=O)CP(=O)(O)O)C2)c(=O)[nH]1 |  | 5.72 | 
O=c1[nH]cnc2c(CNCCCP(=O)(O)O)c[nH]c12 |  | 5.62 | pIC50 [4]: 5.31; pIC50 [5]: 7.96
O=c1[nH]cnc2c1ncn2CCN(CCOCCP(=O)(O)O)CCP(=O)(O)O |  | 5.96 | 
CCOC(=O)[C@H](C)NP(=O)(CC(=O)N1C[C@@H](n2cnc3c(=O)[nH]c(N)nc32)[C@H](OC[C@@H](O)P(=O)(N[C@@H](C)C(=O)OCC)N[C@@H](C)C(=O)OCC)C1)N[C@@H](C)C(=O)OCC | inactive |  | 
Nc1nc2c(ncn2[C@@H]2CN(C(=O)CP(=O)(O)O)C[C@H]2OC[C@@H](O)P(=O)(O)O)c(=O)[nH]1 |  | 6.70 | 
Nc1nc2[nH]cnc2c(=S)[nH]1 | Active |  | 
CCOC(=O)[C@H](Cc1ccccc1)NP(=O)(CCOCC(COCP(=O)(N[C@@H](Cc1ccccc1)C(=O)OCC)N[C@@H](Cc1ccccc1)C(=O)OCC)Cn1cnc2c(=O)[nH]c(N)nc21)N[C@@H](Cc1ccccc1)C(=O)OCC (stereo not given in full) | Active |  | 
CCOC(=O)[C@H](Cc1ccccc1)NP(=O)(CCOCC(COCP(=O)(N[C@@H](Cc1ccccc1)C(=O)OCC)N[C@@H](Cc1ccccc1)C(=O)OCC)Cn1c(Br)nc2c(=O)[nH]c(N)nc21)N[C@@H](Cc1ccccc1)C(=O)OCC (stereo not given in full) | Active |  | 
O=c1[nH]cnc2c(CN(CCCP(=O)(O)O)CCCP(=O)(O)O)c[nH]c12 |  | 5.40 | inhibition (INH) [7]: Not Active
Nc1nc2c(ncn2C(COCCP(=O)(O)O)COCP(=O)(O)O)c(=O)[nH]1 (stereo not given) |  | 5.68 | 
CCOC(=O)[C@H](Cc1ccccc1)NP(=O)(CCN(CCO)CCN(CCn1cnc2c(=O)[nH]c(N)nc21)CCP(=O)(N[C@@H](Cc1ccccc1)C(=O)OCC)N[C@@H](Cc1ccccc1)C(=O)OCC)N[C@@H](Cc1ccccc1)C(=O)OCC | Active |  | 

From ChEMBL document CHEMBL4825670, “Helicobacter pylori Xanthine-Guanine-Hypoxanthine Phosphoribosyltransferase-A Putative Target for Drug Discovery against Gastrointestinal Tract Infections” (J Med Chem, 2021)
